According to patent US6384076B1, “Inhibition or erythrocyte sickling by N-L-alpha-aspartyl-L-phenylalanine 1-methyl ester” (Oklahoma Medical Research Foundation, priority 1998, dated 2002):
Values joined by “and” are separate entries in the source; they are usually repeats but may differ in a detail not shown here. Equal entries are not always repeated. Peptide text beside a SMILES is read from it.

Assays:
RBCs containing HbS = test: Metabisulfite sickling test on heparinized patient blood treated with APM in vitro; assay type: cell-based, human; conditions: for Number of Cells Sickled per Hundred Counted: individual patients 1-12, baseline subtracted; for Number of Cells Sickled per Hundred Counted, Avg: average over 0, 30, 120 min per patient 1-12; for Number of Cells Sickled per Hundred Counted, Mean: mean of the twelve patients' averages (control 17.7)
Description: Blood was drawn from twelve patients of pediatric age who were being treated by phlebotomy and exchange transfusion for their sickling disorders. Blood samples from each patient were drawn directly into heparin tubes, stored in a refrigerator at approximately 10° C., and routinely tested within 36 hours of collection. Some samples were rechecked or reanalyzed within a week of collection, and the effects on sickle hemoglobin was still present with counted values similar to those obtained within 36 hours.
Normal blood devoid of HbS was used as a control. For each heparinized patient blood sample and the normal blood control, three experimental samples were prepared containing 0.25 milliliters of normal saline and 0.25 milliliters of blood and then treated as follows: (1) one was left untreated; one was treated with 1 milligram APM; and (3) one was treated with 2 milligrams APM. All experimental samples were stored in a refrigerator at approximately 10° C. for one hour prior to testing to allow time for the APM to be absorbed by the RBCs.
Using metabisulfite to reduce HbS to the deoxy form (Daland, G. A. and Castle, W. B. 1948. J Lab Clin Med 33:1082-1088; Nelson, D. A. In Todd-Sanford-Davidsohn Clinical Diagnosis by Laboratory Methods, J. B. Henry, ed. (W. B. Saunders Co., Philadelphia, 1979, vol. 1, p. 1020), a sickling test was run on each experimental sample. The sickling inducing agent was prepared fresh daily as follows: 10 milligrams metabisulfite in 1 milliliter isotonic saline. Multiple test slides were prepared for each experimental sample by adding 3 drops of the metabisulfite inducing agent and 1 drop of the experimental sample onto the surface of a glass slide, placing a coverslip over the sample, and sealing the coverslip with a petroleum jelly bead to prevent oxygen from entering the sample. Photomicrographs were taken with a phase contrast microscope at 400 magnification at 0, 30, and 120 minutes after slide preparation, and the results were obtained from the photomicrographs as the number of sickle cells per 100 cells counted.
To account for natural or non-induced sickling of the experimental samples, a baseline sickling count was obtained for each heparinized patient blood sample and the normal blood control. Slides were prepared by adding 3 drops of saline and 1 drop of the experimental sample onto the surface of a glass slide, placing a coverslip over the sample, and sealing the coverslip with a petroleum jelly bead to prevent oxygen from entering the sample. Photomicrographs were taken with a phase contrast microscope at 400 magnification at 0, 30, and 120 minutes after slide preparation, and the results were obtained from the photomicrographs as the number of sickle cells per 100 cells counted. This number of sickle cells per 100 cells counted was considered the baseline sickling count and was subtracted from the cell counts obtained with the metabisulfite induced samples.
A timeline for APM effect was made by repeating the experiment given above with cell counts obtained at 0, 1, 2, 3, 4, 5, 24, and 27 hours post-metabisulfite induction. The results are presented in FIG. 2 as combined APM timelines for each treatment method. The antisickling effect of APM in vitro lasted for at least 27 hours. During this period, the rate of sickling in the APM treated
The effect of calcium (Ca^2+) on the effectiveness of APM was examined by repeating the experiment above with the addition of EDTA, a Ca^2+chelating agent, to normal blood control and the patient experimental samples prior to testing. FIG. 3 illustrates the comparative heparin versus EDTA treatment of the blood. […] Moreover, the addition of a calcium salt to APM formulations useful for antisickling treatment as well as in vitro applications is desirable.

sickling RBCs [1] = test: Reduction of sickle cells in vivo: metabisulfite sickling test on blood of one patient before and 1 hour after oral APM; set-up: species or system human; conditions: blood 1 hour after
Description: During Week 1 of the study, blood samples were taken from the patient before and one hour after an orally administered dose of 60 milligrams APM. During Week 2, blood samples were taken from the patient before and one hour after an orally administered dose of 160 milligrams APM. The blood samples and slides were prepared according to the methods given in Example 1, and cell counts were taken at 0, 30, and 120 minutes post-induction.

sickling RBCs [2] = test: Blinded APM dose-response study of patients with sickle cell disorders (sickle cell counts); assay type: in vivo, human; conditions: for Dose-response of antisickling effect: 1.5, 3, 6 mg/kg body weight
Description: A blinded study was conducted with 23 patients diagnosed with sickle cell disorders. Blood samples were obtained from the 23 patients having sickle cell disease (homozygous HgBss), sickle cell trait (heterozygous Hgbsc), or homozygous HbS with a β-thalassemia chain (“sbthal”) before and after a blinded administration of APM at 1.5 (low dosage), 3 (medium dosage), or 6 (high dosage) milligrams per kilogram body weight.
Blood was drawn before and 120 minutes after treatment with 0, 1.5, 3, or 6 milligrams APM per kilogram body weight in a blinded fashion from the ten patients into heparin tubes, stored in a refrigerator at approximately 10° C. and routinely tested within 36 hours of collection.
Normal blood devoid of abnormal hemoglobin was used as a control. For each heparinized patient blood sample and the normal blood control, experimental samples were prepared containing 0.25 milliliters of normal saline and 0.25 milliliters of blood. Following the metabisulfite induction as given in Example 1, the number of sickle cells relative to the number of normal cells was obtained at 0, 30, 60, 120, 240, 480, and 1440 minutes post-induction.

whole blood viscosity [3] = test: Blood viscosity by RBC pipette method before and after blinded oral APM; assay type: in vivo, human; conditions: for Blood viscosity change after treatment: baseline vs 120 minutes post-treatment
Description: Blood samples were obtained from ten patients having homozygous HbSS disease or heterozygous HbSC disease before and after a blinded administration of APM at 1.5 (low dosage), 3 (medium dosage), or 6 (high dosage) milligrams per kilogram body weight. The patients' characteristics are given in the first ten entries in Table II.
Viscosity determinations using the RBC pipette method of Wright and Jenkins (Wright, D. J. and Jenkins, Jr., D. E. 1970. Blood 36:516-522) were made on each blinded whole blood sample before and 120 minutes after blinded administration of APM. Each measurement was made in triplicate. Control viscosity measurements using saline and water for each patient and normal whole blood sample were also made to validate the viscosity measurements.
(§1) To measure viscosity, 1.01 cc of the test fluid, i.e., either water, saline or blood, was drawn into an RBC pipette using a 50 cc syringe attached via rubber tubing to the top of the RBC pipette. Using a constant pressure of 20 mm by maintaining the pressure with visual feedback and hand pressure, the amount of time it took for the test fluid to drip out of the RBC pipette was measured with a stopwatch. Each measurement was made in triplicate.

whole blood viscosity [4] = test: Blood viscosity after additional in vitro APM on samples taken post in vivo treatment; assay type: cell-based, human; conditions: 1 or 2 milligrams/milliliter APM added in vitro to 480 minute post-treatment samples
Description: as §1
Samples with high viscosity readings at 480 minute or 1,440 minute posttreatment, chosen to represent patients with a validated response to APM who were returning to normal, were divided and treated with an additional 0, 1, or 2 milligrams/milliliter APM in vitro, in an effort to measure whether a second inducible sickling response was possible and if a second response to the in vitro APM addition could be observed. The viscosity of each sample at 480 minutes post-treatment was measured.

[5] = test system: osteo- and mixed osteo- and rheumatoid arthritis; conditions: clinical trial, Edmundson and Manion 1998; cited from earlier work

Passage of APM across the RBC membrane (RBCs containing HbS; in the absence of Ca2+ (EDTA)): does not pass the RBC membrane
SMILES: COC(=O)[C@H](Cc1ccccc1)NC(=O)[C@@H](N)CC(=O)O [APM, N-L-alpha-aspartyl-L-phenylalanine 1-methyl ester] (H-Asp-Phe-OMe)
Number of Cells Sickled per Hundred Counted (RBCs containing HbS; APM 1 mg in 0.25 ml blood + 0.25 ml saline, 0 min after slide preparation): 1.5 per Hundred Counted (2×) and 1.0 per Hundred Counted and 0.5 per Hundred Counted and 0.0 per Hundred Counted and 2.5 per Hundred Counted (2×) and 2.0 per Hundred Counted (2×) and 9.5 per Hundred Counted (2×) and −1.0 per Hundred Counted | Number of Cells Sickled per Hundred Counted (RBCs containing HbS; APM 1 mg, 30 min after slide preparation): 2.5 per Hundred Counted and 2.0 per Hundred Counted and −1.0 per Hundred Counted and 6.0 per Hundred Counted and 1.5 per Hundred Counted and 3.5 per Hundred Counted (2×) and 3.0 per Hundred Counted and 10.5 per Hundred Counted and 9.0 per Hundred Counted and 4.5 per Hundred Counted and −0.5 per Hundred Counted | Number of Cells Sickled per Hundred Counted (RBCs containing HbS; APM 1 mg, 120 min after slide preparation): 1.5 per Hundred Counted and 3.5 per Hundred Counted (2×) and 1.0 per Hundred Counted and 21.0 per Hundred Counted and 2.5 per Hundred Counted and 3.0 per Hundred Counted and 12.0 per Hundred Counted and 11.0 per Hundred Counted and 4.0 per Hundred Counted and 0.5 per Hundred Counted | Number of Cells Sickled per Hundred Counted, Avg (RBCs containing HbS; APM 1 mg): 1.8 per Hundred Counted and 2.2 per Hundred Counted (2×) and 0.2 per Hundred Counted and 9.0 per Hundred Counted and 2.8 per Hundred Counted (2×) and 10.7 per Hundred Counted and 9.8 per Hundred Counted and 3.2 per Hundred Counted (2×) and −0.3 per Hundred Counted | Number of Cells Sickled per Hundred Counted, Mean (RBCs containing HbS; APM 1 mg): 4.0 per Hundred Counted | Number of Cells Sickled per Hundred Counted (RBCs containing HbS; APM 2 mg in 0.25 ml blood + 0.25 ml saline, 0 min after slide preparation): 0.5 per Hundred Counted (2×) and 0.0 per Hundred Counted (2×) and 2.0 per Hundred Counted (2×) and 2.5 per Hundred Counted and 1.0 per Hundred Counted (2×) and 6.5 per Hundred Counted and 8.5 per Hundred Counted and −5.5 per Hundred Counted | Number of Cells Sickled per Hundred Counted (RBCs containing HbS; APM 2 mg, 30 min after slide preparation): 0.5 per Hundred Counted (2×) and 1.0 per Hundred Counted and −0.5 per Hundred Counted and 6.0 per Hundred Counted and 2.0 per Hundred Counted (3×) and 1.5 per Hundred Counted and 5.0 per Hundred Counted and 8.5 per Hundred Counted and −6.5 per Hundred Counted | Number of Cells Sickled per Hundred Counted (RBCs containing HbS; APM 2 mg, 120 min after slide preparation): −0.5 per Hundred Counted (2×) and 0.5 per Hundred Counted and 19.0 per Hundred Counted and 2.5 per Hundred Counted and 5.0 per Hundred Counted and 2.0 per Hundred Counted (2×) and 9.5 per Hundred Counted and 1.0 per Hundred Counted and −6.5 per Hundred Counted | Number of Cells Sickled per Hundred Counted, Avg (RBCs containing HbS; APM 2 mg): 0.0 per Hundred Counted and 0.5 per Hundred Counted and −0.3 per Hundred Counted and 9.0 per Hundred Counted and 2.3 per Hundred Counted and 1.3 per Hundred Counted and 3.0 per Hundred Counted and 4.5 per Hundred Counted and 8.8 per Hundred Counted and 1.2 per Hundred Counted and 0.8 per Hundred Counted and −6.2 per Hundred Counted | Number of Cells Sickled per Hundred Counted, Mean (RBCs containing HbS; APM 2 mg): 2.1 per Hundred Counted | Antisickling effect of APM with addition of EDTA (RBCs containing HbS; EDTA (Ca2+ chelating agent) added prior to testing): completely eliminated the antisickling effect | Sickle cells after metabisulfite versus controls (RBCs containing HbS; all twelve patients, 1 and 2 mg APM, ANOVA p<0.00004): fewer sickle cells than the controls | Duration of antisickling effect in vitro (RBCs containing HbS; counts at 0-27 hours post-metabisulfite induction): at least 27 hours | Rate of sickling in APM treated cells (RBCs containing HbS; over 27 hours, versus controls): significantly less than that in the controls | Number of sickling RBCs relative to the control (sickling RBCs [1]; 60 milligrams APM orally, patient with sickle cell anemia): decrease in the number of sickling RBCs | Antisickling effect versus 60 milligram dosage (sickling RBCs [1]; 160 milligrams APM orally, same patient): proportionately larger | Dose-response of antisickling effect (sickling RBCs [2]; HgBss and sbthal patients): significant dose-response effect | Dose-response of antisickling effect (sickling RBCs [2]; Hgbsc patients): No dose-response effect | Effect on HbSC blood (sickling RBCs [2]; in vivo or in vitro, sickle cell number and viscosity): not affected | Number of sickling RBCs relative to the control (sickling RBCs [2]; lower dosage 1.5 mg/kg body weight): decrease in the number of sickling RBCs | Time to reduction in number of sickle cells relative to normal cells after administration (sickling RBCs [2]; patients with sickle cell family diseases, effective amount): within one hour | Blood viscosity change after treatment (whole blood viscosity [3]; HgBss patients, 1.5, 3 or 6 mg/kg): blood viscosity decreased | No. of Patients with decreasing viscosity (whole blood viscosity [3]; HgBss, of five patients): 5 | Blood viscosity change after treatment (whole blood viscosity [3]; Hgbsc patients): increased viscosity | No. of Patients with increasing viscosity (whole blood viscosity [3]; Hgbsc, of three patients): 3 | Blood viscosity change after treatment (whole blood viscosity [3]; sbthal patients): blood viscosity also decreased | No. of Patients with decreasing viscosity (whole blood viscosity [3]; sbthal, of two patients): 2 | Viscosity of blood samples compared to the control (whole blood viscosity [4]; HgBss patients): decreased over time | Viscosity of blood samples compared to the control (whole blood viscosity [4]; Hgbsc patients): increase in viscosity | Pain and inflammation of arthritis [5]: alleviate the pain and inflammation
